In PubChem BioAssay AID298 (DTP/NCI, 2004):
“And” between values parts separate entries of the source, which are not always exact repeats. Equal values may be shown once. Results filed as inconclusive are left out.

System: MX-1 breast xenograft, intrarenal, nude mice, tumor weight
Test: NCI In Vivo Anticancer Drug Screen. Data for tumor model Human Mammary Carcinoma MX-1 Xenograft (intrarenal inoculation) in NU/NU BALB/C (nude) mice
Settings: endpoint: mean tumor weight change, higher = larger tumour
How it was run: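 Efficacy in vivo: tumor measurement or survival of treated animals divided by that of vehicle-dosed controls.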

[1] = dose: 300.0 mg/kg/injection, schedule: Q04DX003 (sc), vehicle: saline
[2] = dose: 1200.0 mg/kg/injection, schedule: Q04DX003 (sc), vehicle: saline
[3] = dose: 150.0 mg/kg/injection, schedule: Q04DX003 (ip), vehicle: saline with Tween-80
[4] = dose: 600.0 mg/kg/injection, schedule: Q04DX003 (sc), vehicle: saline
[5] = dose: 12.5 mg/kg/injection, schedule: Q04DX003 (sc), vehicle: saline
[6] = dose: 150.0 mg/kg/injection, schedule: Q04DX003 (sc), vehicle: saline
[7] = dose: 50.0 mg/kg/injection, schedule: Q04DX003 (sc), vehicle: saline
[8] = dose: 300.0 mg/kg/injection, schedule: Q04DX003 (ip), vehicle: saline with Tween-80
[9] = dose: 600.0 mg/kg/injection, schedule: Q04DX003 (ip), vehicle: saline with Tween-80

`CC(=O)CC(=O)CCC(=O)O` was tested, and the T/C [1] was 88 % of control and the T/C [2] was 78 % of control.
With `O=S(=O)(O)C1=CC(=N\Cl)/C=CC/1=N/Cl` the T/C [3] was 89 % of control.
`NC1(C(=O)O)CCCC1` was tested, and the T/C (dose: 25.0 mg/kg/injection, schedule: Q01DX010 (sc), vehicle: saline) was 73 % of control and the T/C (dose: 50.0 mg/kg/injection, schedule: Q01DX010 (sc), vehicle: saline) was 31 % of control.
With `CCOC(=O)Nc1cc2c(c(N)n1)N=C(c1ccc3ccccc3c1)CN2` the T/C (dose: 3.75 mg/kg/injection, schedule: Q04DX003 (ip), vehicle: saline with Tween-80) was 73 % of control, the T/C (dose: 7.5 mg/kg/injection, schedule: Q04DX003 (ip), vehicle: saline with Tween-80) was 81 % of control and the T/C (dose: 15.0 mg/kg/injection, schedule: Q04DX003 (ip), vehicle: saline with Tween-80) was 44 % of control. For the same molecule, the T/C (dose: 30.0 mg/kg/injection, schedule: Q04DX003 (ip), vehicle: saline with Tween-80) was 34 % of control.
For `NC(N)=NOCC[C@@H](N)C(=O)O`, the T/C [1] was 87 % of control, the T/C [4] was 111 % of control and the T/C [2] was 86 % of control. For the same molecule, the T/C (dose: 2400.0 mg/kg/injection, schedule: Q04DX003 (sc), vehicle: saline) was 77 % of control.
For `Clc1ccc(CN2COc3c(ccc4cccnc34)C2)cc1Cl`, the T/C (dose: 100.0 mg/kg/injection, schedule: Q01DX010 (sc), vehicle: saline with Tween-80) was 91 % of control, the T/C (dose: 400.0 mg/kg/injection, schedule: Q01DX010 (sc), vehicle: saline with Tween-80) was 71 % of control and the T/C (dose: 800.0 mg/kg/injection, schedule: Q01DX010 (sc), vehicle: saline with Tween-80) was 44 % of control.
For `[Cl][Pt+2][Cl].[NH-]C1CCC1.[NH2-]`, the T/C (dose: 6.25 mg/kg/injection, schedule: Q04DX003 (sc), vehicle: saline) was -94 % of control and the T/C [5] was -97 % of control.
For `O=CC(NC(=O)N(CCCl)N=O)C(O)C(O)C(O)CO` (stereo unspecified), the T/C (dose: 3.0 mg/kg/injection, schedule: Q01DX010 (sc), vehicle: Klucel (hydroxypropylcellulose) (HPC)) was 59 % of control and the T/C (dose: 6.0 mg/kg/injection, schedule: Q01DX010 (sc), vehicle: Klucel (hydroxypropylcellulose) (HPC)) was 51 % of control.
`Nc1ncnc2c1ncn2C1OC(CO)C(O)C1O` (stereo unspecified) was tested, and the T/C [6] was 3 % of control and 23 % of control.
With `COc1cccc2c1C(=O)c1c(O)c3c(c(O)c1C2=O)C[C@@](O)(/C(C)=N\O)C[C@@H]3OC1CC(N)C(O)C(C)O1` (stereo partly specified) the T/C [5] was 64 % of control, the T/C (dose: 25.0 mg/kg/injection, schedule: Q04DX003 (sc), vehicle: saline) was 58 % of control and the T/C [7] was 23 % of control.
For `O=C(Nc1cccnc1)c1ccc([N+](=O)[O-])s1`, the T/C (dose: 50.0 mg/kg/injection, schedule: Q04DX003 (ip), vehicle: saline) was 92 % of control, the T/C (dose: 100.0 mg/kg/injection, schedule: Q04DX003 (ip), vehicle: saline) was 81 % of control and 90 % of control and the T/C (dose: 200.0 mg/kg/injection, schedule: Q04DX003 (ip), vehicle: saline) was 92 % of control and 103 % of control. The T/C (dose: 400.0 mg/kg/injection, schedule: Q04DX003 (ip), vehicle: saline) was 80 % of control and the T/C (dose: 800.0 mg/kg/injection, schedule: Q04DX003 (ip), vehicle: saline) was 105 % of control.
In the case of `Nc1ccc(C(=O)Nc2ccccc2N)cc1`, the T/C (dose: 25.0 mg/kg/injection, schedule: Q01DX010 (ip), vehicle: saline with Tween-80) was 91 % of control, the T/C (dose: 50.0 mg/kg/injection, schedule: Q01DX010 (ip), vehicle: saline with Tween-80) was 87 % of control and the T/C (dose: 100.0 mg/kg/injection, schedule: Q01DX010 (ip), vehicle: saline with Tween-80) was 84 % of control. The T/C (dose: 200.0 mg/kg/injection, schedule: Q01DX010 (ip), vehicle: saline with Tween-80) was 36 % of control.
For `CCOC(=O)c1c[nH]c2ccc3c(nc(C)n3C)c2c1=O`, the T/C (dose: 100.0 mg/kg/injection, schedule: Q04DX003 (ip), vehicle: Klucel (hydroxypropylcellulose) (HPC)) was 122 % of control, the T/C (dose: 200.0 mg/kg/injection, schedule: Q04DX003 (ip), vehicle: Klucel (hydroxypropylcellulose) (HPC)) was 122 % of control and the T/C (dose: 400.0 mg/kg/injection, schedule: Q04DX003 (ip), vehicle: Klucel (hydroxypropylcellulose) (HPC)) was 94 % of control. For the same molecule, the T/C (dose: 800.0 mg/kg/injection, schedule: Q04DX003 (ip), vehicle: Klucel (hydroxypropylcellulose) (HPC)) was 77 % of control.
In the case of `CC1[C@@H]2CC=C3[C@H]4CCC5Cc6nc7c(nc6C[C@@]5(C)C4CC(=O)[C@]32CO[C@]12OC(C)(C)CC2O)CC1CC[C@@H]2C3=C[C@H]4O[C@@]5(O[C@@](C)(CO)C[C@@H]5O)C(C)[C@@]4(O)[C@]3(C)[C@@H](O)CC2[C@]1(C)C7` (stereo partly specified), the T/C (dose: 12.5 micrograms/kg/injection, schedule: Q04DX003 (ip), vehicle: saline + alcohol) was 123 % of control, the T/C (dose: 25.0 micrograms/kg/injection, schedule: Q04DX003 (ip), vehicle: saline + alcohol) was 78 % of control and the T/C (dose: 50.0 micrograms/kg/injection, schedule: Q04DX003 (ip), vehicle: saline + alcohol) was 118 % of control. The T/C (dose: 100.0 micrograms/kg/injection, schedule: Q04DX003 (ip), vehicle: saline + alcohol) was 100 % of control.
`CC[C@@]1(O)C(=O)OCc2c1cc1n(c2=O)Cc2cc3ccccc3nc2-1` was tested, and the T/C (dose: 10.0 mg/kg/injection, schedule: Q04DX003 (sc), vehicle: saline with Tween-80) was -84 % of control and -100 % of control, the T/C (dose: 20.0 mg/kg/injection, schedule: Q04DX003 (sc), vehicle: saline with Tween-80) was -100 % of control and -95 % of control and the T/C (dose: 40.0 mg/kg/injection, schedule: Q04DX003 (sc), vehicle: saline with Tween-80) was -100 % of control.
`Cc1cc(O)c2c(c1O)C(=O)C13C(=C2O)C(=O)C2C(O)C1C1C(O)C3C(=O)C3=C(O)c4c(O)cc(C)c(O)c4C(=O)C321` (stereo unspecified) was tested, and the T/C (dose: 12.5 mg/kg/injection, schedule: Q04DX003 (ip), vehicle: saline with Tween-80) was 107 % of control and the T/C (dose: 25.0 mg/kg/injection, schedule: Q04DX003 (ip), vehicle: saline with Tween-80) was 76 % of control.
For `CN(CN1C(=O)CCC1=O)CN1C(=O)CCC1=O`, the T/C (dose: 150.0 mg/kg/injection, schedule: Q04DX003 (ip), vehicle: saline) was 91 % of control and the T/C (dose: 300.0 mg/kg/injection, schedule: Q04DX003 (ip), vehicle: saline) was 61 % of control.
`CN(C)CCCOc1nc2c(c(=O)n(C)c(=O)n2C)n1C` (tested in a mixture with another compound) was tested, and the T/C (dose: 37.5 mg/kg/injection, schedule: Q04DX003 (ip), vehicle: Klucel (hydroxypropylcellulose) (HPC)) was 75 % of control, the T/C (dose: 75.0 mg/kg/injection, schedule: Q04DX003 (ip), vehicle: Klucel (hydroxypropylcellulose) (HPC)) was 63 % of control and 65 % of control and the T/C (dose: 150.0 mg/kg/injection, schedule: Q04DX003 (ip), vehicle: Klucel (hydroxypropylcellulose) (HPC)) was 58 % of control and 62 % of control. For the same molecule, the T/C (dose: 300.0 mg/kg/injection, schedule: Q04DX003 (ip), vehicle: Klucel (hydroxypropylcellulose) (HPC)) was 19 % of control and 20 % of control.
With `Cc1c(-c2ccc(-c3ccccc3F)cc2)nc2ccc(F)cc2c1C(=O)O` the T/C (dose: 6.9 mg/kg/injection, schedule: Q01DX009 (ip), vehicle: water) was 15 % of control and 19 % of control, the T/C (dose: 11.5 mg/kg/injection, schedule: Q01DX009 (ip), vehicle: water) was 8 % of control and 18 % of control and the T/C (dose: 19.2 mg/kg/injection, schedule: Q01DX009 (ip), vehicle: water) was 2 % of control and 12 % of control. For the same molecule, the T/C (dose: 32.0 mg/kg/injection, schedule: Q01DX009 (ip), vehicle: water) was 6 % of control and 9 % of control.
`CC1C(c2ccccc2)OC(N2CCOCC2)C(C)(C)CN1C` (stereo unspecified) was tested, and the T/C [3] was 112 % of control, the T/C [8] was 101 % of control and the T/C [9] was 82 % of control.
With `c1nnc(NCNc2nncs2)s1` the T/C (dose: 50.0 mg/kg/injection, schedule: Q04DX003 (ip), vehicle: suspension in saline) was 89 % of control, the T/C (dose: 100.0 mg/kg/injection, schedule: Q04DX003 (ip), vehicle: suspension in saline) was 59 % of control and the T/C (dose: 200.0 mg/kg/injection, schedule: Q04DX003 (ip), vehicle: suspension in saline) was 78 % of control. For the same molecule, the T/C (dose: 400.0 mg/kg/injection, schedule: Q04DX003 (ip), vehicle: suspension in saline) was 65 % of control.
With `NC(=S)N/N=C/c1ccc(O)cn1` the T/C (dose: 100.0 mg/kg/injection, schedule: Q04DX003 (sc), vehicle: saline with Tween-80) was 88 % of control, the T/C (dose: 200.0 mg/kg/injection, schedule: Q04DX003 (sc), vehicle: saline with Tween-80) was 101 % of control and the T/C (dose: 400.0 mg/kg/injection, schedule: Q04DX003 (sc), vehicle: saline with Tween-80) was 92 % of control.
In the case of `CSCCC(N)C(=O)O` (stereo unspecified), the T/C [8] was 101 % of control, the T/C [9] was 85 % of control and 105 % of control and the T/C (dose: 1200.0 mg/kg/injection, schedule: Q04DX003 (ip), vehicle: saline with Tween-80) was 102 % of control and 112 % of control. The T/C (dose: 2400.0 mg/kg/injection, schedule: Q04DX003 (ip), vehicle: saline with Tween-80) was 91 % of control and 106 % of control.
`NC1=NC(=O)N2CC12` (stereo unspecified) was tested, and the T/C [7] was 106 % of control, the T/C (dose: 100.0 mg/kg/injection, schedule: Q04DX003 (sc), vehicle: saline) was 116 % of control and the T/C (dose: 200.0 mg/kg/injection, schedule: Q04DX003 (sc), vehicle: saline) was 86 % of control.
For `CC1(C)OCC2OC=CC(=O)C2O1` (stereo unspecified), the T/C [6] was 110 % of control, the T/C [1] was 97 % of control and the T/C [4] was 74 % of control.
